Data from patent US12240859B2, “Turbinmicin compounds, compositions and uses thereof” (Wisconsin Alumni Research Foundation, priority 2019, dated 2025).
≈ marks a conversion by molar mass, not a printed value. Like-named read-outs stand apart in the source and are kept apart here. Blank lines part the entries; values can stand above or below the compound they belong to. *1 amine or outer side, *2 acyl side, *3 side chain or, on linkers, in order; H or OH if unused. Where a SMILES comes first, the peptide text is derived from it. Bridges are numbered along the chain shown (N, C = ends). [ ]: non-standard residue; d: D form. The star is where a group is joined. hTyr(3S-OH,4S-OH,3'-OSO3H) = N[C@H](C(=O)O)[C@H](O)[C@@H](O)c1ccc(O)c(OS(=O)(=O)O)c1; Orn(4R-OH,5R-OH) = O=C([C@H](C[C@@H](O)[C@@H](O)N[*:3])N[*:1])[*:2]; Pro(3S-OH,4S-Me) = C[C@H]1CN[C@H](C(=O)O)[C@H]1O; X1 = CCCCCOc1ccc(-c2cc(-c3ccc(C(=O)*)cc3)no2)cc1; Gln(3R-OH) = NC(=O)C[C@@H](O)[C@H](N)C(=O)O; Hyp = O=C(O)[C@@H]1C[C@@H](O)CN1

Legend:
[1] = tested on: C. albicans; test: In vitro MIC susceptibility testing, broth microdilution; type: cell-based, Candida albicans
Protocol: (§1) In vitro MIC susceptibility testing. […]. Amphotericin B was used as a positive control and the MICs range were 0.25-1.5 μg/mL. Six untreated media controls were included on each plate. The plates were incubated at 33° C. for 72 h. The MICs were determined as the lowest concentration that inhibited visible growth. The MICs were read at 24, 48, and 72 hours, respectively. […]

[2] = tested on: C. auris; test: as above; type: cell-based, Candida auris; design: unit: ug/mL
Protocol: as §1

[3] = tested on: C. glabrata; test: as above; type: cell-based, Candida glabrata; details: Nakaseomyces glabratus
Protocol: as §1

[4] = tested on: C. tropicalis; test: as above; type: cell-based; details: Candida tropicalis, strain 98-234; read-out: MIC
Protocol: In vitro MIC susceptibility testing. […] The plates were incubated at 33° C. for 72 h. The MICs were determined as the lowest concentration that inhibited visible growth. The MICs were read at 24, 48, and 72 hours, respectively.

[5] = tested on: five Candida isolates, C. albicans K-1, C. tropicalis 98-234, C. auris B 11211, C. glabrata 4720, C. albicans SN 250; test: In vitro MIC susceptibility testing, positive control over the Candida isolates; type: cell-based; details: RPMI medium
Protocol: as §1

[6] = tested on: Aspergillus fumigatus; test: In vitro MIC susceptibility testing; type: cell-based
Protocol: as §1

[7] = tested on: A. fumigatus F11628; details: same Cyp51 mutant A. fumigatus strain, comparison; cited from earlier work
[8] = Candidozyma auris, strain B11104
[9] = Candidozyma auris, strain B11203
[10] = Candidozyma auris, strain B11219
[11] = Candidozyma auris, strain B11221
[12] = Candida albicans, strain 98-17, read-out: MIC
[13] = Candida albicans, strain 98-210, read-out: MIC
[14] = Candida albicans, strain 580, read-out: MIC
[15] = Candida albicans, strain K1 (K-1), read-out: MIC
[16] = Candidozyma auris, strain B11211, resistant to amphotericin B, fluconazole, micafungin, read-out: MIC
[17] = Candidozyma auris, strain B11220, read-out: MIC
[18] = Candidozyma auris, strain B11785, read-out: MIC
[19] = Candidozyma auris, strain B11799, read-out: MIC
[20] = Candidozyma auris, strain B11801, read-out: MIC
[21] = Candidozyma auris, strain B11804, read-out: MIC
[22] = positive controls, A. fumigatus F11628, read-out: MIC

SMILES: CCCCCOc1ccc(-c2cc(-c3ccc(C(=O)N[C@H]4C[C@@H](O)[C@@H](O)NC(=O)[C@@H]5[C@@H](O)[C@@H](C)CN5C(=O)[C@H]([C@H](O)CC(N)=O)NC(=O)[C@H]([C@H](O)[C@@H](O)c5ccc(O)c(OS(=O)(=O)O)c5)NC(=O)[C@@H]5C[C@@H](O)CN5C(=O)[C@H]([C@@H](C)O)NC4=O)cc3)no2)cc1 [Micafungin, micafungin] (X1-[Orn(4R-OH,5R-OH)]T[Hyp][hTyr(3S-OH,4S-OH,3'-OSO3H)][Gln(3R-OH)][Pro(3S-OH,4S-Me)]; lactam 1-C)
MIC ([1]; Candida albicans, strain 98-17): 0.06 µg/mL (≈ 0.0472 µM)
MIC ([1]; Candida albicans, strain 98-210): 0.03 µg/mL (≈ 0.0236 µM)
MIC ([1]; Candida albicans, strain 580): 0.016 µg/mL (≈ 0.0126 µM)
MIC ([1]; Candida albicans, strain K1 (K-1)): 0.03 µg/mL (≈ 0.0236 µM)
MIC [2, 8]: 0.25 µg/mL (≈ 0.197 µM)
MIC [2, 9]: 0.25 µg/mL (≈ 0.197 µM)
MIC ([2]; Candidozyma auris, strain B11211, resistant to amphotericin B, fluconazole, micafungin): 4 µg/mL (≈ 3.15 µM)
MIC [2, 10]: 4 µg/mL (≈ 3.15 µM)
MIC ([2]; Candidozyma auris, strain B11220): 0.12 µg/mL (≈ 0.0945 µM)
MIC [2, 11]: 1 µg/mL (≈ 0.787 µM)
MIC ([2]; Candidozyma auris, strain B11785): 0.5 µg/mL (≈ 0.394 µM)
MIC ([2]; Candidozyma auris, strain B11799): 2 µg/mL (≈ 1.57 µM)
MIC ([2]; Candidozyma auris, strain B11801): 1 µg/mL (≈ 0.787 µM)
MIC ([2]; Candidozyma auris, strain B11804): 0.5 µg/mL (≈ 0.394 µM)
MIC ([3]; strain 513): 0.016 µg/mL (≈ 0.0126 µM)
MIC ([3]; strain 729, Fks2_HS1_S663P): 8 µg/mL (≈ 6.3 µM)
MIC ([3]; strain 4720, Fks2_HS1_S645P, echinocandin resistant): 4 µg/mL (≈ 3.15 µM)
MIC ([3]; strain 5592): 0.016 µg/mL (≈ 0.0126 µM)
MIC ([3]; strain 14378, Fks1_HS1_S629P): 2 µg/mL (≈ 1.57 µM)

SMILES: OC(Cn1cncn1)(Cn1cncn1)c1ccc(F)cc1F [Fluconzole, fluconazole]
MIC [4]: 32 µg/mL (≈ 104 µM)
MIC [1, 12]: 16 µg/mL (≈ 52.2 µM)
MIC [1, 13]: 16 µg/mL (≈ 52.2 µM)
MIC [1, 14]: 4 µg/mL (≈ 13.1 µM)
MIC [1, 15]: 0.5 µg/mL (≈ 1.63 µM)
MIC [2, 8]: > 256 µg/mL
MIC [2, 9]: 256 µg/mL (≈ 836 µM)
MIC [2, 16]: > 256 µg/mL
MIC [2, 10]: > 256 µg/mL
MIC [2, 17]: 4 µg/mL (≈ 13.1 µM)
MIC [2, 11]: 128 µg/mL (≈ 418 µM)
MIC [2, 18]: 8 µg/mL (≈ 26.1 µM)
MIC [2, 19]: 16 µg/mL (≈ 52.2 µM)
MIC [2, 20]: 16 µg/mL (≈ 52.2 µM)
MIC [2, 21]: 2 µg/mL (≈ 6.53 µM)

MICs range [5]: 0.25 to 1.5 µg/mL
MIC ([1]; strain 98-17): 0.25 µg/mL (≈ 0.271 µM)
MIC ([1]; strain K1 (K-1)): 0.25 µg/mL (≈ 0.271 µM)
MIC ([2]; strain B11104): 1 µg/mL (≈ 1.08 µM)
MIC ([2]; strain B11203): 4 µg/mL (≈ 4.33 µM)
MIC ([2]; strain B11211, resistant to amphotericin B, fluconazole, micafungin): 1.5 µg/mL (≈ 1.62 µM)
MIC ([2]; strain B11219): 3 µg/mL (≈ 3.25 µM)
MIC ([2]; strain B11220): 0.38 µg/mL (≈ 0.411 µM)
MIC ([2]; strain B11221): 0.38 µg/mL (≈ 0.411 µM)
MIC ([2]; strain B11785): 1.5 µg/mL (≈ 1.62 µM)
MIC ([2]; strain B11799): 0.5 µg/mL (≈ 0.541 µM)
MIC ([2]; strain B11801): 6 µg/mL (≈ 6.49 µM)
MIC ([2]; strain B11804): 0.5 µg/mL (≈ 0.541 µM)
SMILES: C[C@@H]1[C@H](O)[C@@H](C)/C=C/C=C/C=C/C=C/C=C/C=C/C=C/[C@H](O[C@@H]2O[C@H](C)[C@@H](O)[C@H](N)[C@@H]2O)C[C@@H]2O[C@](O)(C[C@@H](O)C[C@@H](O)[C@H](O)CC[C@@H](O)C[C@@H](O)CC(=O)O[C@H]1C)C[C@H](O)[C@H]2C(=O)O [Amphotericin B]

SMILES: CC[C@@H]([C@H](C)O)n1ncn(-c2ccc(N3CCN(c4ccc(OC[C@@H]5CO[C@@](Cn6cncn6)(c6ccc(F)cc6F)C5)cc4)CC3)cc2)c1=O [Posaconazole, posaconazole]
MIC [1, 12]: 0.12 µg/mL (≈ 0.171 µM)
MIC [1, 13]: 0.12 µg/mL (≈ 0.171 µM)
MIC [1, 14]: 0.06 µg/mL (≈ 0.0856 µM)
MIC [1, 15]: 0.03 µg/mL (≈ 0.0428 µM)
MIC [6, 22]: 8 µg/mL (≈ 11.4 µM)
MIC ([6]; strain 293, read-out: MIC): 0.5 µg/mL (≈ 0.713 µM)
MIC ([6]; strain F14532, Cyp51 M220T): 1 µg/mL (≈ 1.43 µM)
MIC ([6]; strain F16216, Cyp51 L98H + TR): 2 µg/mL
MIC ([2]; Candidozyma auris, strain B11104, read-out: MIC): 0.5 µg/mL (≈ 0.713 µM)
MIC ([2]; Candidozyma auris, strain B11203, read-out: MIC): 0.12 µg/mL (≈ 0.171 µM)
MIC [2, 16]: 0.5 µg/mL (≈ 0.713 µM)
MIC ([2]; Candidozyma auris, strain B11219, read-out: MIC): 0.5 µg/mL (≈ 0.713 µM)
MIC [2, 17]: 0.06 µg/mL (≈ 0.0856 µM)
MIC ([2]; Candidozyma auris, strain B11221, read-out: MIC): 0.5 µg/mL (≈ 0.713 µM)
MIC [2, 18]: 0.016 µg/mL (≈ 0.0228 µM)
MIC [2, 19]: 0.06 µg/mL (≈ 0.0856 µM)
MIC [2, 20]: 0.12 µg/mL (≈ 0.171 µM)
MIC [2, 21]: 0.03 µg/mL (≈ 0.0428 µM)
dose required to achieve 1-log kill [7]: 150 mg/kg/24 h

MIC [6, 22]: 8 µg/mL (≈ 18.3 µM)
SMILES: C[C@@H](c1nc(-c2ccc(C#N)cc2)cs1)[C@](O)(Cn1cncn1)c1cc(F)ccc1F [Isavuconazole]
